US8802597B2, “Herbicidal pyrimidines” (E I du Pont de Nemours and Company, priority 2003, dated 2014)
Read-outs that look alike come from different tables or passages of the source.

Legend:
Assay type in all cases: in vivo
[1] = system: chickweed (Stellaria media); assay: Test C postemergence; settings: Stellaria media, post-emergence
How it was run: (§1)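 We sprayed seeded pots preemergence and 2–18 cm seedlings postemergence with test chemicals in a non-phytotoxic solvent mixture including surfactant. Greenhouse plants were visually compared with untreated controls at 12 to 14 days and scored 0 (no effect) to 100 (complete control).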

[2] = system: barnyardgrass (Echinochloa crus-galli); assay: Test A pre/postemergence; settings: Echinochloa crus-galli, 240 h, read-out: Plant response rating, Barnyardgrass; for pest or weed control at 125 g/ha: 125 g ai/ha; for pest or weed control at 500 g/ha: 500 g ai/ha
How it was run: (§2)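 Visual injury scored 0–100 (0 = no effect, 100 = complete control) against untreated controls after about ten days in the greenhouse. Compounds, formulated in non-phytotoxic solvent plus surfactant, were applied preemergence as a directed soil spray and postemergence at the 1- to 2-leaf stage (2–10 cm).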

[3] = system: velvetleaf (Abutilon theophrasti); assay: Test A pre/postemergence; settings: Abutilon theophrasti, 240 h, read-out: Plant response rating, Velvetleaf; for pest or weed control at 125 g/ha: 125 g ai/ha; for pest or weed control at 500 g/ha: 500 g ai/ha
How it was run: as §2

[4] = system: giant foxtail (Setaria faberi); assay: Test A pre/postemergence; settings: Setaria faberi, 240 h, read-out: Plant response rating, Foxtail, Giant; for pest or weed control at 125 g/ha: 125 g ai/ha; for pest or weed control at 500 g/ha: 500 g ai/ha
How it was run: as §2

[5] = system: morningglory (Ipomoea spp.); assay: Test A pre/postemergence; settings: Ipomoea, 240 h, read-out: Plant response rating, Morningglory; for pest or weed control at 125 g/ha: 125 g ai/ha; for pest or weed control at 500 g/ha: 500 g ai/ha
How it was run: as §2

[6] = system: crabgrass (Digitaria sanguinalis); assay: Test A pre/postemergence; settings: Digitaria sanguinalis, 240 h, read-out: Plant response rating, Crabgrass; for pest or weed control at 125 g/ha: 125 g ai/ha; for pest or weed control at 500 g/ha: 500 g ai/ha
How it was run: as §2

[7] = system: redroot pigweed (Amaranthus retroflexus); assay: Test A pre/postemergence; settings: Amaranthus retroflexus, 240 h, read-out: Plant response rating, Pigweed; for pest or weed control at 125 g/ha: 125 g ai/ha; for pest or weed control at 500 g/ha: 500 g ai/ha
How it was run: as §2

[8] = system: yellow nutsedge (Cyperus esculentus); assay: Test C pre/postemergence; settings: Cyperus; for pest or weed control at 16 g/ha: 16 g ai/ha; for pest or weed control at 31 g/ha: 31 g ai/ha; for pest or weed control at 62 g/ha: 62 g ai/ha
How it was run: as §1

[9] = system: giant foxtail (Setaria faberii); assay: Test C pre/postemergence; settings: Setaria faberi; for pest or weed control at 125 g/ha: 125 g ai/ha; for pest or weed control at 16 g/ha: 16 g ai/ha; for pest or weed control at 31 g/ha: 31 g ai/ha; for pest or weed control at 62 g/ha: 62 g ai/ha
How it was run: as §1

[10] = system: Surinam grass (Brachiaria decumbens); assay: Test C pre/postemergence; settings: Urochloa decumbens; for pest or weed control at 16 g/ha: 16 g ai/ha; for pest or weed control at 31 g/ha: 31 g ai/ha; for pest or weed control at 62 g/ha: 62 g ai/ha
How it was run: as §1

[11] = system: crabgrass (Digitaria sanguinalis); assay: Test C pre/postemergence; settings: Digitaria sanguinalis; for pest or weed control at 16 g/ha: 16 g ai/ha; for pest or weed control at 31 g/ha: 31 g ai/ha; for pest or weed control at 62 g/ha: 62 g ai/ha; for pest or weed control at 125 g/ha: 125 g ai/ha
How it was run: as §1

[12] = post-emergence, Postemergence, 0 to 100 scale (0 no effect, 100 complete control)
[13] = pre-emergence, Preemergence, 0 to 100 scale where 0 is no effect and 100 is complete control, approximately ten days
[14] = post-emergence, Postemergence, read-out: Plant response rating (scale of 0 to 100), Nutsedge, Yellow
[15] = pre-emergence, Preemergence, scale 0 to 100, 0 no effect, 100 complete control, read-out: Plant response rating, Nutsedge, Yellow
[16] = post-emergence, Postemergence, read-out: Plant response rating (scale of 0 to 100), Foxtail, Giant
[17] = pre-emergence, Preemergence, scale 0 to 100, 0 no effect, 100 complete control, read-out: Plant response rating, Foxtail, Giant
[18] = post-emergence, Postemergence, read-out: Plant response rating (scale of 0 to 100), Surinam Grass
[19] = pre-emergence, Preemergence, scale 0 to 100, 0 no effect, 100 complete control, read-out: Plant response rating, Surinam Grass
[20] = post-emergence, Postemergence, read-out: Plant response rating (scale of 0 to 100), Crabgrass
[21] = pre-emergence, Preemergence, scale 0 to 100, 0 no effect, 100 complete control, read-out: Plant response rating, Crabgrass

## Nc1nc(-c2ccc(Cl)cc2)nc(C(=O)O)c1Cl [Compound 65, 6-amino-5-chloro-2-(4-chlorophenyl)-4-pyrimidinecarboxylic acid]
[1]; 16 g ai/ha, read-out: Plant response rating (scale of 0 to 100), Chickweed
  pest or weed control at 16 g/ha: 60%
[1]; 31 g ai/ha, read-out: Plant response rating (scale of 0 to 100), Chickweed
  pest or weed control at 31 g/ha: 60%
[1]; 62 g ai/ha, read-out: Plant response rating (scale of 0 to 100), Chickweed
  pest or weed control at 62 g/ha: 60%
[1]; 125 g ai/ha, scale 0 to 100 (0 no effect, 100 complete control), read-out: Chickweed plant response rating
  pest or weed control at 125 g/ha: 70%
[2]; [12]
  pest or weed control at 125 g/ha: 85%
  pest or weed control at 500 g/ha: 85%
[2]; [13]
  pest or weed control at 125 g/ha: 50%
  pest or weed control at 500 g/ha: 90%
[3]; [12]
  pest or weed control at 125 g/ha: 95%
  pest or weed control at 500 g/ha: 100%
[3]; [13]
  pest or weed control at 125 g/ha: 55%
  pest or weed control at 500 g/ha: 95%
[4]; [12]
  pest or weed control at 125 g/ha: 85%
  pest or weed control at 500 g/ha: 95%
[4]; [13]
  pest or weed control at 125 g/ha: 40%
  pest or weed control at 500 g/ha: 80%
[5]; [12]
  pest or weed control at 125 g/ha: 75%
  pest or weed control at 500 g/ha: 95%
[5]; [13]
  pest or weed control at 125 g/ha: 25%
  pest or weed control at 500 g/ha: 90%
[6]; [12]
  pest or weed control at 125 g/ha: 55%
  pest or weed control at 500 g/ha: 80%
[6]; [13]
  pest or weed control at 125 g/ha: 60%
  pest or weed control at 500 g/ha: 90%
[7]; [12]
  pest or weed control at 125 g/ha: 100%
  pest or weed control at 500 g/ha: 100%
[7]; [13]
  pest or weed control at 125 g/ha: 100%
  pest or weed control at 500 g/ha: 100%
[8]; [14]
  pest or weed control at 16 g/ha: 0%
  pest or weed control at 31 g/ha: 0%
  pest or weed control at 62 g/ha: 20%
[8]; post-emergence, Postemergence, 125 g ai/ha, scale 0 to 100 (0 no effect, 100 complete control), read-out: Nutsedge, Yellow plant response rating
  pest or weed control at 125 g/ha: 50%
[8]; [15]
  pest or weed control at 16 g/ha: 0%
  pest or weed control at 31 g/ha: 0%
  pest or weed control at 62 g/ha: 30%
[9]; post-emergence, Postemergence, scale 0 to 100 (0 no effect, 100 complete control), read-out: Foxtail, Giant plant response rating
  pest or weed control at 125 g/ha: 70%
[9]; [16]
  pest or weed control at 16 g/ha: 50%
  pest or weed control at 31 g/ha: 60%
  pest or weed control at 62 g/ha: 70%
[9]; [17]
  pest or weed control at 16 g/ha: 0%
  pest or weed control at 31 g/ha: 10%
  pest or weed control at 62 g/ha: 50%
[9]; pre-emergence, Preemergence, scale 0 to 100, read-out: Plant response rating, Foxtail, Giant
  pest or weed control at 125 g/ha: 60%
[10]; post-emergence, Postemergence, 125 g ai/ha, scale 0 to 100 (0 no effect, 100 complete control), read-out: Surinam Grass plant response rating
  pest or weed control at 125 g/ha: 80%
[10]; [18]
  pest or weed control at 16 g/ha: 60%
  pest or weed control at 31 g/ha: 80%
  pest or weed control at 62 g/ha: 80%
[10]; [19]
  pest or weed control at 16 g/ha: 0%
  pest or weed control at 31 g/ha: 40%
  pest or weed control at 62 g/ha: 80%
[11]; [20]
  pest or weed control at 16 g/ha: 80%
  pest or weed control at 31 g/ha: 80%
  pest or weed control at 62 g/ha: 90%
[11]; post-emergence, Postemergence, scale 0 to 100 (0 no effect, 100 complete control), read-out: Crabgrass plant response rating
  pest or weed control at 125 g/ha: 90%
[11]; [21]
  pest or weed control at 16 g/ha: 0%
  pest or weed control at 31 g/ha: 20%
  pest or weed control at 62 g/ha: 70%
[11]; pre-emergence, Preemergence, scale 0 to 100, read-out: Plant response rating, Crabgrass
  pest or weed control at 125 g/ha: 80%
